ChEMBL document CHEMBL4130376, “Discovery of methylsulfonyl indazoles as potent and orally active respiratory syncytial Virus(RSV) fusion inhibitors” (Eur J Med Chem, 2017)

Tests used:
[1] = Metabolic stability in mouse liver microsomes by high-throughput screening based assay; format: ADME, microsome; conditions: read-out: Stability
[2] = Effective permeability of the compound by PAMPA; format: ADME; conditions: read-out: Peff
[3] = Metabolic stability in human liver microsomes by high-throughput screening based assay; format: ADME, microsome; conditions: read-out: Stability
[4] = Metabolic stability in rat liver microsomes by high-throughput screening based assay; format: ADME, microsome; conditions: read-out: Stability
[5] = Cmax in ICR mouse at 2 mg/kg, iv; format: ADME, organism-based; design: dose 2 mg/kg, route intravenous; conditions: in vivo
[6] = Cmax in ICR mouse at […], po; format: ADME, organism-based; design: dose 7.9 mg/kg, route oral; conditions: in vivo
[7] = Volume of distribution at steady state in ICR mouse at 2 mg/kg, iv; format: ADME, organism-based; conditions: in vivo, read-out: Vdss
[8] = AUC (0 to 24 hrs) in ICR mouse at […], po; format: ADME, organism-based; design: time < 24 hr, dose 7.9 mg/kg, route oral; conditions: in vivo
[9] = Half life in ICR mouse at 2 mg/kg, iv; format: ADME, organism-based; conditions: in vivo
[10] = AUC (0 to 24 hrs) in ICR mouse at 2 mg/kg, iv; format: ADME, organism-based; design: time < 24 hr, dose 2 mg/kg, route intravenous; conditions: ICR, in vivo
[11] = Plasma clearance in ICR mouse at 2 mg/kg, iv; format: ADME, organism-based
[12] = Half life in ICR mouse at […], po; format: ADME, organism-based; conditions: in vivo
[13] = Tmax in ICR mouse at […], po; format: ADME, organism-based; conditions: in vivo
[14] = Oral bioavailability in ICR mouse at […]; format: ADME, organism-based; conditions: in vivo
[15] = Oral bioavailability in ICR mouse at 10 mg/kg; format: ADME, organism-based; conditions: in vivo
[16] = Cmax in ICR mouse at 10 mg/kg, po; format: ADME, organism-based; design: dose 10 mg/kg, route oral; conditions: in vivo
[17] = Half life in ICR mouse at 10 mg/kg, po; format: ADME, organism-based; conditions: in vivo
[18] = Tmax in ICR mouse at 10 mg/kg, po; format: ADME, organism-based; conditions: in vivo
[19] = AUC (0 to 24 hrs) in ICR mouse at 10 mg/kg, po; format: ADME, organism-based; design: time < 24 hr, dose 10 mg/kg, route oral; conditions: in vivo
[20] = Volume of distribution at steady state in ICR mouse at 1 mg/kg, iv; format: ADME, organism-based; conditions: in vivo, read-out: Vdss
Mus musculus [21] = test: Oral bioavailability in ICR mouse at 12.2 mg/kg; format: ADME, organism-based; conditions: in vivo
[22] = Cmax in ICR mouse at 1 mg/kg, iv; format: ADME, organism-based; design: dose 1 mg/kg, route intravenous; conditions: in vivo
Mus musculus [23] = test: AUC (0 to 24 hrs) in ICR mouse at 12.2 mg/kg, po; format: ADME, organism-based; design: dose 12.2 mg/kg, time < 24 hr, route oral; conditions: in vivo
[24] = Cmax in ICR mouse at 12.2 mg/kg, po; format: ADME, organism-based; design: dose 12.2 mg/kg, route oral; conditions: in vivo
[25] = Tmax in ICR mouse at 12.2 mg/kg, po; format: ADME, organism-based; conditions: in vivo
Mus musculus [26] = test: AUC (0 to 24 hrs) in ICR mouse at 1 mg/kg, iv; format: ADME, organism-based; design: time < 24 hr, dose 1 mg/kg, route intravenous; conditions: in vivo

Row | Compound | CLhep predicted [1] | Papp [2] | CLhep predicted [3] | CLhep predicted [4] | other results
1 | CS(=O)(=O)c1nn(Cc2nc3cc(Cl)ccc3n2CCCCC(F)(F)F)c2cnccc12 | 22.7 mL/min/kg | 0.95 ×10⁻⁶ cm/s | 4.57 mL/min/kg | 6.15 mL/min/kg | 
2 | CS(=O)(=O)CCn1c(Cn2cc(S(C)(=O)=O)c3ccccc32)nc2ccccc21 | 19.7 mL/min/kg | 4.87 ×10⁻⁶ cm/s | 7.33 to 9 mL/min/kg |  | 
3 | CS(=O)(=O)CCCc1c(CN2C(=O)C3(CC3)c3ccncc32)nc2cc(Cl)ccn12 | 83.3 mL/min/kg |  | 11.7 mL/min/kg |  | 
4 | CC(C)(O)CCn1c(Cn2nc(S(C)(=O)=O)c3ccncc32)nc2cc(Cl)ccc21 | 26.6 mL/min/kg | 2.39 ×10⁻⁶ cm/s | 2.95 mL/min/kg | 8.45 mL/min/kg | Cmax [5]: 894 ng/mL; Cmax [6]: 324 ng/mL; Vd [7]: 1.93 L/kg; AUC(0-t) at 24 h [8]: 546 ng·h/mL; half-life [9]: 28.2 min; AUC(0-t) at 24 h [10]: 701 ng·h/mL; clearance [11]: 61.1 mL/min/kg; half-life [12]: 119 min; Tmax [13]: 15 min; bioavailability [14]: 32.5%
5 | CS(=O)(=O)c1nn(Cc2nc3cc(Cl)ccc3n2CCOCCO)c2cnccc12 | 14.2 mL/min/kg | 3.12 ×10⁻⁶ cm/s | 1.91 mL/min/kg | 13.7 mL/min/kg | 
6 | CS(=O)(=O)CCCn1c(Cn2nc(S(C)(=O)=O)c3ccncc32)nc2cc(Cl)ccc21 | 75.5 mL/min/kg | 1.55 ×10⁻⁶ cm/s | 11.3 mL/min/kg | 39.9 mL/min/kg | 
7 | CN(C)S(=O)(=O)c1cn(Cc2nc3cc(Cl)ccc3n2CCCS(C)(=O)=O)c2ccccc12 | 81.7 mL/min/kg | 1.55 ×10⁻⁶ cm/s | 21.9 mL/min/kg | 56.2 mL/min/kg | 
8 | CC(C)(O)CCCn1c(Cn2nc(S(C)(=O)=O)c3ccncc32)nc2cc(Cl)ccc21 | 20.7 mL/min/kg | 2.57 ×10⁻⁶ cm/s | 5.17 mL/min/kg | 2.96 mL/min/kg | Cmax [5]: 1300 ng/mL; bioavailability [15]: 29.3%; Vd [7]: 1.09 L/kg; Cmax [16]: 340 ng/mL; half-life [9]: 14.5 min; AUC(0-t) at 24 h [10]: 552 ng·h/mL; clearance [11]: 60.4 mL/min/kg; half-life [17]: 307 min; Tmax [18]: 15 min; AUC(0-t) at 24 h [19]: 809 ng·h/mL
9 | CS(=O)(=O)c1nn(Cc2nc3cc(Cl)ccc3n2CC2COC2)c2cnccc12 | 9 mL/min/kg | 3.22 ×10⁻⁶ cm/s | 3.9 mL/min/kg | 19.8 mL/min/kg | Vd [20]: 0.88 L/kg; F (Mus musculus [21]): 23.8%; Cmax [22]: 1270 ng/mL; AUC (Mus musculus [23]): 989 ng·h/mL; Cmax [24]: 972 ng/mL; Tmax [25]: 30 min; AUC (Mus musculus [26]): 2870 ng·h/mL
